{"source": "patent US10159254B2", "about": "“Weed control methods” (Syngenta Participations AG, priority 2013, dated 2018)", "key": {"SYHT0H2 soybeans [1]": {"test_system": "SYHT0H2 soybeans", "experiment": "Greenhouse: Sequestrene 138Fe rate series, percent injury from HPPD-inhibitors at 7 DAT", "assay_type": "in vivo, soybean", "conditions": "mesotrione 420, bicyclopyrone 200, tembotrione 368, topramezone 72 g/ha", "method": "Effect of Sequestrene® 138Fe on Percent Injury from Various HPPD-inhibitors on SYHT0H2 Soybeans. Injury Assessed at Seven Days after Treatment (7 DAT)\nSYHT0H2 soybeans are grown in 4×4-inch pots filled with a greenhouse potting mix. When the plants reach the V2-V3 growth stage, they are treated with an HPPD inhibitor applied alone or in a tank mixture with Sequestrene 138Fe at various rates ranging from 140 g product/ha (equivalent to 8.4 g iron/ha) to 2240 g product/ha (equivalent to 134 g iron/ha)."}, "SYHT0H2 soybeans [2]": {"test_system": "SYHT0H2 soybeans", "experiment": "Greenhouse: water-soluble iron compounds safening mesotrione, maximum injury", "conditions": "mesotrione 420 g ai/ha, additive none; maximum injury of 6, 9, 16 days after treatment", "method": "An experiment is conducted to look at the safening effect of a variety of water-soluble iron-containing compounds. SYHT0H2 soybean plants are grown in small pots filled with a greenhouse potting mix. […] In all cases, mesotrione was applied at 420 g ai/ha and all treatments contained liquid ammonium sulphate at 2.5% v/v and NIS at 0.25% v/v. The application rates of iron-containing compounds indicated are iron equivalent rates. […] Percent injury levels were assessed 6, 9, and 16 days after treatment. Data presented are maximum injury occurring from any of the treatments at any time during the experiment."}, "SYHT04R soybeans": {"test_system": "SYHT04R soybeans", "experiment": "Greenhouse: Sequestrene 138Fe safening of HPPD-inhibitors, injury 6 days after treatment", "assay_type": "in vivo, soybean", "conditions": "6 days after treatment (maximum injury), mesotrione 420, bicyclopyrone 200, isoxaflutole 280 g/ha", "method": "Effect of Sequestrene® 138Fe on Various HPPD-inhibitors in SYHT04R Soybeans. Maximum Injury Assessed 6 Days after Treatment\nA greenhouse experiment is conducted to determine if Sequestrene® 138Fe was effective in safening various other HPPD herbicide-tolerant soybean events, such as SYHT04R.\nSYHT04R soybean plants are grown in 4×4-inch pots filled with a greenhouse potting mix. When the plants reached the V2-V3 growth stage, they are sprayed with an HPPD inhibitor alone or in combination with Sequestrene® 138Fe at 1120 g/ha (equivalent to 67.2 g iron/ha). […] Observations on percent injury are recorded at 6 and 20 days after treatment. Data presented is from the 6 days after treatment rating representing the maximum injury observed during the experiment."}, "SYHT0H2 soybeans [3]": {"test_system": "SYHT0H2 soybeans", "experiment": "Greenhouse: tank-mix and sequential Sequestrene 138Fe, HPPD-inhibitor maximum injury", "assay_type": "in vivo, soybean", "conditions": "mesotrione 420, bicyclopyrone 200, tembotrione 368 g ai/ha", "method": "Effect of Tank-mix and Sequential Application of Sequestrene® 138 on Mesotrione (Applied as Callisto®)—Maximum Injury in SYHT0H2 Soybeans\nAn experiment is conducted in the greenhouse to determine the effect of chelated iron (Sequestrene 138Fe containing 6% iron) on HPPD-inhibitor injury to SYHT0H2 soybeans. Soybeans are grown in pots filled with a greenhouse potting mix. When the plants reach the V2-V3 stage, they are sprayed with an HPPD-inhibitor herbicide applied alone (Treatment 1), or in tank mixture with Sequestrene 138Fe (Treatment 2), or sequentially with Sequestrene 138Fe applied 1 day before the HPPD inhibitor (Treatment 3). Sequestrene 138Fe is applied at 2240 g/ha (equivalent to 134 g iron/ha). All treatments are applied with liquid ammonium sulfate @ 2.5% v/v and a non-ionic surfactant (NIS) @ 0.25% v/v in 150 L/ha water. Observations on percent injury are recorded 5, 11, or 22 days after treatment. Data presented are maximum injury observed during the trial."}, "[4]": {"test_system": "tobacco line overexpressing Avena HPPD", "experiment": "Transgenic tobacco herbicide damage, mesotrione with or without Sequestrene 138", "assay_type": "in vivo, Nicotiana tabacum cv Samsun (tobacco)", "method": "(§1) Effect of Iron Chelates in Mitigating Foliar Bleaching Injury from HPPD Inhibiting Herbicides Across Various Transgenic HPPD Tolerant Tobacco Events Over-expressing HPPD Genes from Different Origins\n(§2) This experiment is carried out to determine whether iron chelates can mitigate the bleaching injury from HPPD inhibiting herbicides across various transgenic HPPD tolerant tobacco events over-expressing HPPD genes from different origins. These experiments are conducted using three distinct HPPD-overexpressing Nicotiana tabacum cv Samsun (tobacco) lines, one over-expressing wheat HPPD, one overexpressing an Avena HPPD and one over-expressing a HPPD from a bacterial source, Pseudomonas florescens. For each transgenic line, five identical clonal plants were sprayed with each herbicide treatment. Two untransformed clonal tobacco plants are also sprayed ([…]) with each herbicide treatment. Assessments are carried out 3, 7 and 14 days after herbicide application.\n(§3) All scores represent average % herbicide damage. […] An equivalent safening effect is not observed when the same chemical treatments are applied to wild type plants."}, "[5]": {"test_system": "tobacco line over-expressing wheat HPPD", "experiment": "Transgenic tobacco herbicide damage, mesotrione with or without Sequestrene 138", "assay_type": "in vivo, Nicotiana tabacum cv Samsun (tobacco)", "method": "as §1, §2, §3"}, "[6]": {"test_system": "tobacco line over-expressing HPPD from Pseudomonas florescens", "experiment": "Transgenic tobacco herbicide damage, mesotrione with or without Sequestrene 138", "assay_type": "in vivo, Nicotiana tabacum cv Samsun (tobacco)", "method": "as §1, §2, §3"}}, "note": "Values joined by “and” are separate entries in the source; they are usually repeats but may differ in a detail not shown here. Equal values may be shown once."}
{"smiles": "CS(=O)(=O)c1ccc(C(=O)C2C(=O)CCCC2=O)c([N+](=O)[O-])c1", "note": "[Mesotrione, mesotrione]", "values": [{"measurement": "% Injury", "setting": "SYHT0H2 soybeans [1]; Sequestrene 138Fe 0 g/ha", "result": 15, "unit": "%"}, {"measurement": "% Injury", "setting": "SYHT0H2 soybeans [1]; Sequestrene 138Fe 140 g/ha tank mix", "result": 13, "unit": "%"}, {"measurement": "% Injury", "setting": "SYHT0H2 soybeans [1]; Sequestrene 138Fe 280 g/ha tank mix", "result": 2, "unit": "%"}, {"measurement": "% Injury", "setting": "SYHT0H2 soybeans [1]; Sequestrene 138Fe 560 g/ha tank mix", "result": 1, "unit": "%"}, {"measurement": "% Injury", "setting": "SYHT0H2 soybeans [1]; Sequestrene 138Fe 1120 g/ha tank mix", "result": 0, "unit": "%"}, {"measurement": "% Injury", "setting": "SYHT0H2 soybeans [1]; Sequestrene 138Fe 2240 g/ha tank mix", "result": 0, "unit": "%"}, {"measurement": "% Injury", "setting": "SYHT0H2 soybeans [2]", "result": 17, "unit": "%"}, {"measurement": "% Injury", "setting": "SYHT04R soybeans; Sequestrene 138Fe 0 g/ha", "result": 23, "unit": "%"}, {"measurement": "% Injury", "setting": "SYHT04R soybeans; Sequestrene 138Fe 1120 g/ha", "result": 3, "unit": "%"}, {"measurement": "% Maximum Injury", "setting": "SYHT0H2 soybeans [3]; Sequestrene 138Fe 2240 g/ha applied 1 day before herbicide (Treatment 3, sequential)", "result": 7, "unit": "%"}, {"measurement": "% Maximum Injury", "setting": "SYHT0H2 soybeans [3]; herbicide alone (Treatment 1), maximum of 5, 11, 22 days after treatment", "result": 20, "unit": "%"}, {"measurement": "% Maximum Injury", "setting": "SYHT0H2 soybeans [3]; tank mix with Sequestrene 138Fe 2240 g/ha (Treatment 2, simultaneous)", "result": 0, "unit": "%"}, {"measurement": "% herbicide damage", "setting": "[4]; Trt 13: mesotrione 400 gai/ha alone, 3DAA", "result": "55% and 45% and 50% and 60% and 40%"}, {"measurement": "% herbicide damage", "setting": "[4]; Trt 13: mesotrione 400 gai/ha alone, 7DAA", "result": "70% and 65%"}, {"measurement": "% herbicide damage", "setting": "[4]; Trt 13: mesotrione 400 gai/ha alone, 14DAA", "result": "65% and 45% and 50%"}, {"measurement": "% herbicide damage", "setting": "[4]; Trt 14: mesotrione 500 gai/ha alone, 3DAA", "result": "55% and 60% and 65%"}, {"measurement": "% herbicide damage", "setting": "[4]; Trt 14: mesotrione 500 gai/ha alone, 7DAA", "result": "75% and 70%"}, {"measurement": "% herbicide damage", "setting": "[4]; Trt 14: mesotrione 500 gai/ha alone, 14DAA", "result": "70% and 65% and 60%"}, {"measurement": "% herbicide damage", "setting": "[4]; Trt 15: mesotrione 600 gai/ha alone, 7DAA", "result": "55% and 75% and 78%"}, {"measurement": "% herbicide damage", "setting": "[4]; Trt 15: mesotrione 600 gai/ha alone, 14DAA", "result": "40% and 65% and 50% and 70%"}, {"measurement": "% herbicide damage", "setting": "[4]; Trt 16: mesotrione 400 gai/ha + Sequestrene 138 1000 g/ha, 3DAA", "result": "0% and 5% and 10%"}, {"measurement": "% herbicide damage", "setting": "[4]; Trt 16: mesotrione 400 gai/ha + Sequestrene 138 1000 g/ha, 7DAA", "result": "15% and 10%"}, {"measurement": "% herbicide damage", "setting": "[4]; Trt 16: mesotrione 400 gai/ha + Sequestrene 138 1000 g/ha, 14DAA", "result": "15% and 10% and 5%"}, {"measurement": "% herbicide damage", "setting": "[5]; Trt 7: mesotrione 200 gai/ha alone, 3DAA", "result": "10% and 5%"}, {"measurement": "% herbicide damage", "setting": "[5]; Trt 7: mesotrione 200 gai/ha alone, 7DAA", "result": "10% and 0%"}, {"measurement": "% herbicide damage", "setting": "[5]; Trt 7: mesotrione 200 gai/ha alone, 14DAA", "result": "10% and 0%"}, {"measurement": "% herbicide damage", "setting": "[5]; Trt 8: mesotrione 300 gai/ha alone, 3DAA", "result": "15% and 10%"}, {"measurement": "% herbicide damage", "setting": "[5]; Trt 9: mesotrione 400 gai/ha alone, 3DAA", "result": "20% and 15%"}, {"measurement": "% herbicide damage", "setting": "[5]; Trt 9: mesotrione 400 gai/ha alone, 7DAA", "result": "20% and 25%"}, {"measurement": "% herbicide damage", "setting": "[5]; Trt 10: mesotrione 200 gai/ha + Sequestrene 138 1000 g/ha, 3DAA", "result": "0% and 5%"}, {"measurement": "% herbicide damage", "setting": "[5]; Trt 10: mesotrione 200 gai/ha + Sequestrene 138 1000 g/ha, 7DAA", "result": 0, "unit": "%"}, {"measurement": "% herbicide damage", "setting": "[5]; Trt 11: mesotrione 300 gai/ha + Sequestrene 138 1000 g/ha, 3DAA", "result": "0% and 5% and 10%"}, {"measurement": "% herbicide damage", "setting": "[5]; Trt 11: mesotrione 300 gai/ha + Sequestrene 138 1000 g/ha, 7DAA", "result": "10% and 5% and 0%"}, {"measurement": "% herbicide damage", "setting": "[5]; Trt 12: mesotrione 400 gai/ha + Sequestrene 138 1000 g/ha, 3DAA", "result": "10% and 0%"}, {"measurement": "% herbicide damage", "setting": "[5]; Trt 12: mesotrione 400 gai/ha + Sequestrene 138 1000 g/ha, 7DAA", "result": "5% and 0%"}, {"measurement": "% herbicide damage", "setting": "[5]; Trt 12: mesotrione 400 gai/ha + Sequestrene 138 1000 g/ha, 14DAA", "result": "10% and 5%"}, {"measurement": "% herbicide damage", "setting": "[6]; Trt 2: mesotrione 100 gai/ha alone, 3DAA", "result": "35% and 25% and 20%"}, {"measurement": "% herbicide damage", "setting": "[6]; Trt 2: mesotrione 100 gai/ha alone, 7DAA", "result": "55% and 30% and 35%"}, {"measurement": "% herbicide damage", "setting": "[6]; Trt 2: mesotrione 100 gai/ha alone, 14DAA", "result": "40% and 25% and 20% and 30%"}, {"measurement": "% herbicide damage", "setting": "[6]; Trt 4: mesotrione 50 gai/ha + Sequestrene 138 1000 g/ha, 7DAA", "result": 0, "unit": "%"}, {"measurement": "% herbicide damage", "setting": "[6]; Trt 4: mesotrione 50 gai/ha + Sequestrene 138 1000 g/ha, 14DAA", "result": 0, "unit": "%"}, {"measurement": "% herbicide damage", "setting": "[6]; Trt 5: mesotrione 100 gai/ha + Sequestrene 138 1000 g/ha, 3DAA", "result": "10% and 5%"}, {"measurement": "% herbicide damage", "setting": "[6]; Trt 5: mesotrione 100 gai/ha + Sequestrene 138 1000 g/ha, 7DAA", "result": 0, "unit": "%"}, {"measurement": "% herbicide damage", "setting": "[6]; Trt 6: mesotrione 150 gai/ha + Sequestrene 138 1000 g/ha, 3DAA", "result": "5% and 15% and 10%"}, {"measurement": "% herbicide damage", "setting": "[6]; Trt 6: mesotrione 150 gai/ha + Sequestrene 138 1000 g/ha, 14DAA", "result": "5% and 0%"}]}
